Data from PubChem BioAssay AID248 (DTP/NCI, 2004).
Values joined by “and” are separate entries in the source; they are usually repeats but may differ in a detail not shown here. Equal values may be shown once. Inconclusive results and toxic doses are left out. Cut-off read from the data, not from the text of the source: active = T/C of 150% or more; inactive = T/C below 125%.

System: L1210 leukemia ip in BDF1 mice, survival T/C
Test: NCI In Vivo Anticancer Drug Screen. Data for tumor model L1210 Leukemia (intraperitoneal) in B6D2F1 (BDF1) mice
Conditions: endpoint: mean survival time, higher = longer survival
How it was run: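 Mice bearing the transplanted tumor received compound or vehicle. Survival of the treated group was divided by that of the vehicle-treated control group to give the ratio.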

[1] = dose: 100.0 mg/kg/injection, schedule: Q01DX001 (ip), vehicle: other
[2] = dose: 200.0 mg/kg/injection, schedule: Q01DX001 (ip), vehicle: other
[3] = dose: 400.0 mg/kg/injection, schedule: Q01DX001 (ip), vehicle: other
[4] = dose: 75.0 mg/kg/injection, schedule: Q01DX001 (ip), vehicle: saline
[5] = dose: 150.0 mg/kg/injection, schedule: Q01DX001 (ip), vehicle: saline
[6] = dose: 100.0 mg/kg/injection, schedule: Q01DX001 (ip), vehicle: saline
[7] = dose: 200.0 mg/kg/injection, schedule: Q01DX001 (ip), vehicle: saline
[8] = dose: 400.0 mg/kg/injection, schedule: Q01DX001 (ip), vehicle: saline
[9] = dose: 100.0 mg/kg/injection, schedule: Q04DX002 (ip), vehicle: Klucel (hydroxypropylcellulose) (HPC)
[10] = dose: 200.0 mg/kg/injection, schedule: Q04DX002 (ip), vehicle: Klucel (hydroxypropylcellulose) (HPC)
[11] = dose: 100.0 mg/kg/injection, schedule: Q04DX003 (ip), vehicle: Klucel (hydroxypropylcellulose) (HPC)
[12] = dose: 200.0 mg/kg/injection, schedule: Q04DX003 (ip), vehicle: Klucel (hydroxypropylcellulose) (HPC)

Measured: T/C

O=CNC1CCCCC1
inactive: dose: 20.0 mg/kg/injection, schedule: Q01DX009 (ip), vehicle: saline with Tween-80 93 % of control | dose: 40.0 mg/kg/injection, schedule: Q01DX001 (ip), vehicle: saline with Tween-80 100 % of control | dose: 40.0 mg/kg/injection, schedule: Q01DX009 (ip), vehicle: saline with Tween-80 93 % of control | dose: 80.0 mg/kg/injection, schedule: Q01DX001 (ip), vehicle: saline with Tween-80 100 % of control | dose: 80.0 mg/kg/injection, schedule: Q01DX009 (ip), vehicle: saline with Tween-80 91 % of control

Cc1ccc(S(=O)(=O)OC2CCCC2OS(=O)(=O)c2ccc(C)cc2)cc1 (stereo unspecified)
inactive: [1] 96 % of control | [2] 95 % of control | [3] 91 % of control

CC(C)CCCC(C)C1CCC2C3CCC4CC(O)CCC4(C)C3CCC12C (stereo unspecified)
inactive: dose: 100.0 mg/kg/injection, schedule: Q01DX001 (sc), vehicle: steriod suspending solution 109 % of control | dose: 200.0 mg/kg/injection, schedule: Q01DX001 (sc), vehicle: steriod suspending solution 109 % of control | dose: 400.0 mg/kg/injection, schedule: Q01DX001 (sc), vehicle: steriod suspending solution 100 % of control

O=[N+]([O-])/C=C\C(Cl)(Cl)Cl
inactive: dose: 6.25 mg/kg/injection, schedule: Q01DX009 (ip), vehicle: saline with Tween-80 96 % of control | dose: 12.5 mg/kg/injection, schedule: Q01DX009 (ip), vehicle: saline with Tween-80 87 % of control

COc1ccc(-c2c(CO)cc(OC)c(OC)c2OC)c(CO)c1
inactive: [4] 99 % of control | [5] 99 % of control | dose: 300.0 mg/kg/injection, schedule: Q01DX001 (ip), vehicle: saline 92 % of control

O=C(Nc1ccc(Br)cc1)c1ccc(C(=O)Nc2ccc(Br)cc2)cc1
inactive: [6] 94 % of control | [7] 100 % of control | [8] 94 % of control

COC(=O)C1=C(NC(=O)Nc2ccccc2)OC(C)(C)C1c1ccc(Cl)cc1 (stereo unspecified)
inactive: [6] 93 % of control | [7] 89 % of control | [8] 89 % of control

S=C(NCC1CCCO1)Nc1cccc2ccccc12 (stereo unspecified)
inactive: [9] 95 % of control | [10] 91 % of control | dose: 400.0 mg/kg/injection, schedule: Q04DX002 (ip), vehicle: Klucel (hydroxypropylcellulose) (HPC) 95 % of control

O=C(C=C(C(F)(F)F)C(F)(F)F)c1cccc(Cl)c1
inactive: dose: 6.25 mg/kg/injection, schedule: Q01DX009 (ip), vehicle: saline 100 % of control | dose: 6.25 mg/kg/injection, schedule: Q04DX003 (ip), vehicle: saline with Tween-80 96 % of control | dose: 12.5 mg/kg/injection, schedule: Q01DX009 (ip), vehicle: saline 100 % of control | dose: 12.5 mg/kg/injection, schedule: Q04DX003 (ip), vehicle: saline with Tween-80 107 % of control | dose: 25.0 mg/kg/injection, schedule: Q01DX009 (ip), vehicle: saline 97 % of control | dose: 25.0 mg/kg/injection, schedule: Q04DX003 (ip), vehicle: saline with Tween-80 100 % of control | dose: 50.0 mg/kg/injection, schedule: Q04DX003 (ip), vehicle: saline with Tween-80 100 % of control

CC(C)C1(NC(=O)C2C=C3c4cccc5[nH]cc(c45)CC3N(C)C2)OC2(O)C3CCCN3C(=O)C(Cc3ccccc3)N2C1=O (stereo unspecified)
inactive: dose: 50.0 mg/kg/injection, schedule: Q01DX001 (ip), vehicle: carboxymethylcellulose (CMC) 93 % of control | dose: 50.0 mg/kg/injection, schedule: Q01DX001 (ip), vehicle: other 93 % of control | dose: 100.0 mg/kg/injection, schedule: Q01DX001 (ip), vehicle: carboxymethylcellulose (CMC) 98 % of control | [1] 88 % of control | [6] 102 % of control | [2] 93 % of control | [7] 96 % of control and 89 % of control | [3] 96 % of control

N=C(CNC1CC2CCC1C2)SS(=O)(=O)O (stereo unspecified)
inactive: dose: 3.13 mg/kg/injection, schedule: Q01DX009 (ip), vehicle: Klucel (hydroxypropylcellulose) (HPC) 97 % of control | dose: 3.13 mg/kg/injection, schedule: Q04DX002 (ip), vehicle: Klucel (hydroxypropylcellulose) (HPC) 98 % of control | dose: 6.25 mg/kg/injection, schedule: Q01DX009 (ip), vehicle: Klucel (hydroxypropylcellulose) (HPC) 94 % of control | dose: 6.25 mg/kg/injection, schedule: Q04DX002 (ip), vehicle: Klucel (hydroxypropylcellulose) (HPC) 95 % of control | dose: 12.5 mg/kg/injection, schedule: Q01DX009 (ip), vehicle: Klucel (hydroxypropylcellulose) (HPC) 105 % of control | dose: 12.5 mg/kg/injection, schedule: Q04DX002 (ip), vehicle: Klucel (hydroxypropylcellulose) (HPC) 98 % of control and 103 % of control

CC(C)C(=O)OCC(=O)c1ccc(-c2ccccc2)cc1
inactive: [6] 100 % of control | [7] 94 % of control | [8] 111 % of control

COC(=O)C1=C(C(=O)OC)C2C=CC1C1(C)N=C(OC)C21C (stereo unspecified)
inactive: dose: 100.0 mg/kg/injection, schedule: Q04DX002 (ip), vehicle: saline with Tween-80 100 % of control | dose: 200.0 mg/kg/injection, schedule: Q04DX002 (ip), vehicle: saline with Tween-80 100 % of control | dose: 400.0 mg/kg/injection, schedule: Q04DX002 (ip), vehicle: saline with Tween-80 102 % of control

CCCCCCCCCCCCCCCCCCOCCCCCCCCCCCC
inactive: [1] 97 % of control | [2] 92 % of control | [3] 93 % of control

CC1(C)OCC(C2OC(N)C(O)C2O)O1 (stereo unspecified)
inactive: dose: 100.0 mg/kg/injection, schedule: Q04DX002 (ip), vehicle: saline 94 % of control | dose: 200.0 mg/kg/injection, schedule: Q04DX002 (ip), vehicle: saline 97 % of control | dose: 400.0 mg/kg/injection, schedule: Q04DX002 (ip), vehicle: saline 102 % of control

CCN(CC)CC[N-]CCN(CC)CC.[Cl][Pt]
inactive: [6] 97 % of control

CC1(C)N(C(=S)Nc2ccccc2)C1(C)C
inactive: dose: 50.0 mg/kg/injection, schedule: Q01DX009 (ip), vehicle: Klucel (hydroxypropylcellulose) (HPC) 106 % of control | dose: 50.0 mg/kg/injection, schedule: Q04DX003 (ip), vehicle: Klucel (hydroxypropylcellulose) (HPC) 92 % of control | dose: 100.0 mg/kg/injection, schedule: Q01DX009 (ip), vehicle: Klucel (hydroxypropylcellulose) (HPC) 95 % of control | [11] 103 % of control | dose: 200.0 mg/kg/injection, schedule: Q01DX009 (ip), vehicle: Klucel (hydroxypropylcellulose) (HPC) 92 % of control | [12] 102 % of control

NC1(C(=O)O)CCC(N)(C(=O)O)CC1 (stereo unspecified)
inactive: [4] 110 % of control | [5] 100 % of control

CCCCN(C(=O)C(F)(F)F)C(C)(C)C(SSSC(c1ccc(Cl)cc1)C(C)(C)N(CCCC)C(=O)C(F)(F)F)c1ccc(Cl)cc1 (stereo unspecified)
inactive: dose: 100.0 mg/kg/injection, schedule: Q01DX009 (ip), vehicle: saline sonified 103 % of control | dose: 100.0 mg/kg/injection, schedule: Q04DX003 (ip), vehicle: saline sonified 96 % of control | dose: 200.0 mg/kg/injection, schedule: Q01DX009 (ip), vehicle: saline sonified 100 % of control | dose: 200.0 mg/kg/injection, schedule: Q04DX003 (ip), vehicle: saline sonified 94 % of control | dose: 400.0 mg/kg/injection, schedule: Q01DX009 (ip), vehicle: saline sonified 96 % of control | dose: 400.0 mg/kg/injection, schedule: Q04DX003 (ip), vehicle: saline sonified 97 % of control

O=C1OC2C3c4ccccc4C(c4c3cc(F)c3ccccc43)C2O1 (stereo unspecified)
inactive: [11] 100 % of control | [12] 97 % of control | dose: 400.0 mg/kg/injection, schedule: Q04DX003 (ip), vehicle: Klucel (hydroxypropylcellulose) (HPC) 95 % of control

C/C=C/CC1(C(C)C)C(=O)NC(=S)NC1=O
inactive: [4] 93 % of control

O=[N+]([O-])c1ccc2n[nH]c(Cl)c2c1
inactive: [6] 95 % of control | [7] 95 % of control | [8] 94 % of control

COC1OC2COc3ccccc3OC2C2C1N2C(=N)N[N+](=O)[O-] (stereo unspecified)
inactive: dose: 40.0 mg/kg/injection, schedule: Q04DX002 (ip), vehicle: saline 102 % of control | dose: 160.0 mg/kg/injection, schedule: Q04DX002 (ip), vehicle: saline 102 % of control

COc1c(N(C)C)cc2c(c1C)OC(C)(C)C=C2
inactive: dose: 100.0 mg/kg/injection, schedule: Q04DX003 (ip), vehicle: saline with Tween-80 96 % of control | dose: 200.0 mg/kg/injection, schedule: Q04DX003 (ip), vehicle: saline with Tween-80 94 % of control | dose: 400.0 mg/kg/injection, schedule: Q04DX003 (ip), vehicle: saline with Tween-80 96 % of control

NC(=S)N/N=C/c1c(Cl)n(C(=O)c2ccccc2Cl)c2ccccc12
inactive: dose: 50.0 mg/kg/injection, schedule: Q04DX002 (ip), vehicle: Klucel (hydroxypropylcellulose) (HPC) 87 % of control | [9] 87 % of control | [10] 91 % of control

CCOC(=O)c1cnc(NCC(C)(C)C)[nH]c1=O
inactive: [6] 95 % of control | [7] 91 % of control | [8] 91 % of control
